The source of these data is publication PMC10384862, “[^212Pb]Pb-eSOMA-01: A Promising Radioligand for Targeted Alpha Therapy of Neuroendocrine Tumors” (Pharmaceuticals, 2023).

Data set [1] is described as follows: LogD7.4 by shake-flask method (n-octanol/PBS). It is filed as physicochemical. To be noted: ^203Pb-labeled compound; n-octanol/PBS pH 7.4; n = 3. As for the experimental part:
Distribution coefficients (LogD7.4) were determined by the shake-flask method. A sample containing the ^203Pb-labeled compound (~1 MBq) was added to a vial containing PBS (600 µL, pH 7.4) and n-octanol (600 µL). The vial was vortexed vigorously and then centrifuged at 10,000 rpm for 10 min for phase separation. Samples (100 µL) of the n-octanol and aqueous phases were taken and measured by a gamma counter. The LogD7.4 value was calculated by using the equation: LogD7.4 = log [(counts in the n-octanol phase)/(counts in the aqueous phase)]. Measurements were performed in triplicate.

A short description of data set [2]: In vitro stability in PBS. It is filed as physicochemical. As to conditions: 37 °C, n = 1. The procedure:
The ^203Pb-labeled compounds (~ 2 MBq) or the ^212Pb-labeled compounds (~ 70 kBq) were incubated in 300 µL of phosphate buffered saline (PBS; 0.1 M, pH 7.4) or mouse serum at 37 °C. The stability of the radiolabeled peptides was monitored at 1, 4, and 24 h post-incubation. The samples in PBS were directly analyzed by radio-HPLC without any pretreatment. However, samples of mouse serum were mixed with an equal volume of acetonitrile to precipitate the proteins. The solution was centrifuged twice for 5 min at 13,000 rpm, and the supernatant was analyzed by radio-HPLC using Method 1 for lead-203 and Method 2 for lead-212.

Data set [3] deals with H69-xenograft Balb/c nu/nu mice. Description: Biodistribution study with lead-212. To be noted: 1 h p.i.; n = 4. It is filed as in vivo, mouse. As for the experimental part:
(§1) Six-week-old male Balb/c nu/nu-specific and opportunistic pathogen-tree (SOPF) mice (Janvier Labs, Le Genest-Saint-Isle, France) were housed in individually ventilated cages, with four mice per cage. Upon arrival, the mice were acclimated for 1 week with access to food and water ad libitum. Mice were subcutaneously inoculated on the right shoulder with NCI-H69 cells (5 × 10^6 cells suspended in 100 μL of 1/3 Matrigel (Corning Inc.; Corning, NY, USA) and 2/3 Hank’s balanced salt solution (Gibco; Paisley, UK). NCI-H69 xenografts were allowed to grow for 3 weeks. Tumor sizes were 391 ± 173 mm^3 at the start of the studies.
(§2) Biodistribution studies were performed to determine tumor and organ uptake of [^212Pb]Pb-DOTAM-TATE, [^212Pb]Pb-eSOMA-01, and [^212Pb]Pb-eSOMA-02. Animals (n = 4 for each time point) were injected intravenously (i.v.) with an average of 100 kBq/0.5 nmol. At 3 selected time points (1, 4, and 24 h) p.i., blood was collected via retro-orbital puncture under isoflurane/O2 anesthesia, after which the mice were sacrificed via cervical dislocation. The tumor and organs of interest (heart, lungs, liver, spleen, stomach, large intestine, small intestine, pancreas, kidneys, muscle, skin, and bone) were excised, washed in PBS, and blotted dry. To confirm receptor specificity of radioligand uptake, mice (n = 3) were co-injected with an excess (25 nmol) of the respective unlabeled peptide, and uptake in the organs of interest was determined at 24 h p.i. To determine the total injected radioactivity per animal, a calibration curve with lead-212 was established using the gamma counter. The percentage of injected dose per gram (% ID/g) was determined for each tissue sample and corrected for both the injected volume and the % ID present at the injection site (the tail).

A short description of data set [4]: Biodistribution study with lead-212. Format: in vivo, mouse. To be noted: mouse, intravenous; for tissue uptake at 1 h: 1 h p.i.; for tissue uptake at 4 h: 4 h p.i. As for the experimental part:
as §1, §2

Setting [5] is: blood, 100 kBq, n = 4, read-out: Blood uptake.
The mark [6] stands for this setting: intestines, 100 kBq, n = 4, read-out: Intestines uptake.
Setting [7] is: kidneys, 100 kBq, n = 4, read-out: Kidneys uptake.
[8] abbreviates: liver, 100 kBq, n = 4, read-out: Liver uptake.
Where [9] appears, read: lungs, 100 kBq, n = 4, read-out: Lungs uptake.
Where [10] appears, read: pancreas, 100 kBq, n = 4, read-out: Pancreas uptake.
Setting [11] is: spleen, 100 kBq, n = 4, read-out: Spleen uptake.
[12] abbreviates: stomach, 100 kBq, n = 4, read-out: Stomach uptake.
[13] abbreviates: tumor, 100 kBq, n = 4, read-out: Tumor uptake.

The term logD denotes the decadic logarithm of the distribution of all forms, ionised or not, between an organic phase and buffer at a given pH. Lower therefore signals lower lipophilicity.

Where two headings read alike, the source gives them in different places.

In turn, `C[C@@H](O)[C@H](NC(=O)[C@@H]1CSSC[C@H](NC(=O)[C@@H](Cc2ccccc2)NC(=S)Nc2ccc(CC3CN(CC(N)=O)CCN(CC(N)=O)CCN(CC(N)=O)CCN3CC(N)=O)cc2)C(=O)N[C@@H](Cc2ccc(O)cc2)C(=O)N[C@H](Cc2c[nH]c3ccccc23)C(=O)N[C@@H](CCCCN)C(=O)N[C@@H]([C@@H](C)O)C(=O)N1)C(=O)O` (stereo partly drawn) [[^203Pb]Pb-eSOMA-03, metal not drawn] registered a log distribution coefficient (logD) in data set [1] of -1.36 ± 0.06. Besides, the “Stability in PBS, intact labeled ligand” value came out at 70% in data set [2] (^203Pb-labeled, 1 h); 40% in data set [2] (^203Pb-labeled, 4 h); 15% in data set [2] (^203Pb-labeled, 24 h). In addition, the remaining at 1 h in data set [2] (phosphate buffered saline, pH 7.4, ^203Pb-labeled, 1 h, read-out: Stability in PBS, intact labeled ligand) came to 70%. The remaining at 24 h in data set [2] (phosphate buffered saline, pH 7.4, ^203Pb-labeled, 24 h, read-out: Stability in PBS, intact labeled ligand) came to 15%.
In data set [3], `C[C@@H](O)[C@H](NC(=O)[C@@H]1CSSC[C@H](NC(=O)[C@@H](Cc2ccccc2)NC(=O)CN2CCC(NC(=O)CN3CCN(CC(N)=O)CCN(CC(N)=O)CCN(CC(N)=O)CC3)CC2)C(=O)N[C@@H](Cc2ccc(O)cc2)C(=O)N[C@H](Cc2c[nH]c3ccccc23)C(=O)N[C@@H](CCCCN)C(=O)N[C@@H]([C@@H](C)O)C(=O)N1)C(=O)O` [[^212Pb]Pb-eSOMA-02, metal not drawn] came in with a Stomach uptake of 3.7 % ID/g. Besides, the tissue uptake at 1 h was 1.44 ± 0.24 %ID/g in data set [4] (setting [5]); 0.54 ± 0.21 %ID/g in data set [4] (heart, 100 kBq, n = 4, read-out: Heart uptake); 2.24 ± 1.05 %ID/g in data set [4] (setting [6]); 81.1 ± 14.3 %ID/g in data set [4] (setting [7]); 3.96 ± 0.37 %ID/g in data set [4] (setting [8]); 3.49 ± 0.7 %ID/g in data set [4] (setting [9]). The tissue uptake at 1 h in data set [4] (setting [10]) came to 6.41 ± 0.7 %ID/g; in data set [4] (setting [11]), 0.59 ± 0.06 %ID/g; in data set [4] (setting [12]), 3.74 ± 0.66 %ID/g; in data set [4] (setting [13]), 7.93 ± 2.14 %ID/g. Also, the tissue uptake at 4 h in data set [4] (setting [5]) is 0.01 ± 0.02 %ID/g; in data set [4] (bone, 100 kBq, n = 4, read-out: Bones uptake) it was 0.03 ± 0.05 %ID/g; in data set [4] (setting [6]), 0.67 ± 0.21 %ID/g; in data set [4] (setting [7]), 50.5 ± 3.24 %ID/g; in data set [4] (setting [8]), 3.09 ± 0.7 %ID/g; in data set [4] (setting [9]), 0.99 ± 0.24 %ID/g. The tissue uptake at 4 h in data set [4] (setting [10]) amounted to 1.25 ± 0.27 %ID/g; in data set [4] (skin, 100 kBq, n = 4, read-out: Skin uptake) it was 0.25 ± 0.33 %ID/g; in data set [4] (setting [11]) it was 0.39 ± 0.27 %ID/g; in data set [4] (setting [12]), 1.17 ± 0.35 %ID/g; in data set [4] (setting [13]), 7.45 ± 0.29 %ID/g. Moreover, the tissue uptake at 24 h amounted to 0.13 ± 0.09 %ID/g in data set [4] (intestines, 100 kBq, 24 h p.i., n = 4, read-out: Intestines uptake); 0.03 ± 0.03 %ID/g in data set [4] (intestines, 24 h block: co-injection of excess (25 nmol) unlabeled peptide, read-out: Intestines uptake); 28.2 ± 9.41 %ID/g in data set [4] (kidneys, 100 kBq, 24 h p.i., n = 4, read-out: Kidneys uptake); 37.9 ± 9.17 %ID/g in data set [4] (kidneys, 24 h block: co-injection of excess (25 nmol) unlabeled peptide, read-out: Kidneys uptake); 1.44 ± 0.94 %ID/g in data set [4] (liver, 100 kBq, 24 h p.i., n = 4, read-out: Liver uptake); 0.83 ± 0.87 %ID/g in data set [4] (liver, 24 h block: co-injection of excess (25 nmol) unlabeled peptide, read-out: Liver uptake). Moreover, the tissue uptake at 24 h in data set [4] (lungs, 100 kBq, 24 h p.i., n = 4, read-out: Lungs uptake) stood at 0.2 ± 0.21 %ID/g; in data set [4] (pancreas, 100 kBq, 24 h p.i., n = 4, read-out: Pancreas uptake), 0.41 ± 0.37 %ID/g; in data set [4] (stomach, 100 kBq, 24 h p.i., n = 4, read-out: Stomach uptake), 0.36 ± 0.27 %ID/g; in data set [4] (stomach, 24 h block: co-injection of excess (25 nmol) unlabeled peptide, read-out: Stomach uptake), 0.14 ± 0.28 %ID/g; in data set [4] (tumor, 100 kBq, 24 h p.i., n = 4, read-out: Tumor uptake), 1.02 ± 0.09 %ID/g. Also, the “Stability in PBS, intact labeled ligand” value in data set [2] (^212Pb-labeled, 1 h) was 97%; in data set [2] (^212Pb-labeled, 4 h), 95%; in data set [2] (^212Pb-labeled, 24 h) it was 95%.
